Test results: US7354936B2, “2-phenylpyran-4-one derivatives” (Almirall AG, priority 2000, dated 2008)

How the values were obtained:
COX-1 = molecular target: T1, COX-1 (Homo sapiens, UniProt P23219); test: COX-1 activity in human whole blood (TXB2, calcium ionophore A23187); type: cell-based; settings: 1 h at 37° C., TXB2 by ELISA
T1 construct: Fresh blood from healthy volunteers; from tissue; host or cells: human whole blood (heparinized) from healthy volunteers
Description: (§1) COX-1 and COX-2 Activities in Human Whole Blood
For the COX-1 activity determination, 500:1 aliquots of blood were incubated with either 5:1 vehicle (dimethylsulphoxide) or 5:1 of a test compound for 1 h at 37° C. Calcium ionophore A23187 (25:M) was added 20 min before stopping the incubation. Plasma was separated by centrifugation (10 min at 13000 rpm) and kept at −30° C. until TXB2 levels were measured using an enzyme immunoassay kit (ELISA).
The effect of the compounds was evaluated by incubating each compound at five to six different concentrations with triplicate determinations. IC50 values were obtained by non-linear regression using InPlot, GraphPad software on an IBM computer.

COX-2 = molecular target: T2, COX-2 (Homo sapiens, UniProt P35354); test: COX-2 activity in human whole blood (PGE2, LPS-induced); type: cell-based; settings: for IC50: LPS 24 h at 37° C., PGE2 by ELISA; for Ratio COX-1/COX-2: ratio of COX-1/COX-2 IC50 values
T2 construct: incubated in the presence of LPS (10:g/ml) for 24 h at 37° C. in order to induce the COX-2 expression; from tissue; host or cells: human whole blood (heparinized) from healthy volunteers, LPS-stimulated for 24 h
T2 sequence (P35354 18-604): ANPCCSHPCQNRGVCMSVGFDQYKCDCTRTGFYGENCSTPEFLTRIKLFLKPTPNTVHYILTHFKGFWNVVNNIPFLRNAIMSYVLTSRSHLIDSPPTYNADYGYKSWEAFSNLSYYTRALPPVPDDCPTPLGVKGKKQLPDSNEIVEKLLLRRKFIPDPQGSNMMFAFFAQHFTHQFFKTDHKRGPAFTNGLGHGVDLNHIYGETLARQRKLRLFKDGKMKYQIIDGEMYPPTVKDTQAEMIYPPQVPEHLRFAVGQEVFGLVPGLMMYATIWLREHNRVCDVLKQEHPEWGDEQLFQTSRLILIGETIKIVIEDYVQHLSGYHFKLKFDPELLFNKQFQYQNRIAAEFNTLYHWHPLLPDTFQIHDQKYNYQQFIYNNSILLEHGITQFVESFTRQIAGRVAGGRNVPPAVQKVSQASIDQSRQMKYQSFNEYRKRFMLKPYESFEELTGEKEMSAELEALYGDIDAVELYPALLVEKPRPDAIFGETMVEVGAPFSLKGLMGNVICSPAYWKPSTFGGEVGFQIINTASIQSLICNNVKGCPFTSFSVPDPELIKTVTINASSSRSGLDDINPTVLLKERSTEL
Description: as §1
Plasma was separated by centrifugation (10 min at 13000 rpm) and kept at −30° C. until PGE2 levels were measured using an enzyme immunoassay kit (ELISA). […] IC50 values were obtained by non-linear regression using InPlot, GraphPad software on an IBM computer.

T1 sequence (P23219 24-599): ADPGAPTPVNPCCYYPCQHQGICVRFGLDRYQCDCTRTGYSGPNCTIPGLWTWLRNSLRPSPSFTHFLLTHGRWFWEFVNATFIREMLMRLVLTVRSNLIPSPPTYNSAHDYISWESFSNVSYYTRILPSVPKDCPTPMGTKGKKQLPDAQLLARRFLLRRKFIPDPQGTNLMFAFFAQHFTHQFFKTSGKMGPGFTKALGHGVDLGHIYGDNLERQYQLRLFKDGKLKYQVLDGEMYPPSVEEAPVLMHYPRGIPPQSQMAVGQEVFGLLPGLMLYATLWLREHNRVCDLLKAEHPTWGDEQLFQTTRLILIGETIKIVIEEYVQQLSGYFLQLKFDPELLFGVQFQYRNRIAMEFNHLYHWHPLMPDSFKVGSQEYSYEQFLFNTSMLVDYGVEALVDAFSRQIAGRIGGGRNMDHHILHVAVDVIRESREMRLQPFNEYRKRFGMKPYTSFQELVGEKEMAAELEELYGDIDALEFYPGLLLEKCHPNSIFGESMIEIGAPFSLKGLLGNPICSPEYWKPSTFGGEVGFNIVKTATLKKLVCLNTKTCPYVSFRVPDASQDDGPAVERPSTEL

Compound	IC50 (COX-1)	IC50 (COX-2)	Ratio COX-1/COX-2 (COX-2)	melting point
C=Cc1c(C)oc(-c2ccc(S(C)(=O)=O)cc2)c(Oc2ccc(F)cc2F)c1=O [Example 20, 3-(2,4-Difluorophenoxy)-2-(4-methanesulfonylphenyl)-6-methyl-5-vinyl pyran-4-one]	31.2 µM	1.43 µM	22	184 °C
Cc1ccc(Oc2c(-c3ccc(S(C)(=O)=O)cc3)oc(C(F)F)cc2=O)cc1 [Example 36, 6-(1,1-Difluoromethyl)-2-(4-methanesulfonylphenyl)-3-(4-methylphenoxy)pyran-4-one]	28.5 µM	0.097 µM	294	160 °C
COCc1cc(=O)c(Oc2ccc(F)cc2F)c(-c2ccc(S(C)(=O)=O)cc2)o1 [Example 26, 3-(2,4-Difluorophenoxy)-2-(4-methanesulfonylphenyl)-6-methoxymethyl pyran-4-one]	21.1 µM	0.17 µM	124	124 °C
CS(=O)(=O)c1ccc(-c2oc(CO)cc(=O)c2Oc2ccc(F)cc2F)cc1 [Example 22, 3-(2,4-Difluorophenoxy)-6-hydroxymethyl-2-(4-methanesulfonylphenyl) pyran-4-one]	53 µM	0.19 µM	279	205 °C
